Experimental data: the supplement of paper PMC10307832

What was measured:
Assay in all cases: relative viability (nuclei count vs DMSO), 5 days (fraction); higher = more cells survive
[1] = compound: O=c1[nH]cc(F)c(=O)[nH]1 [5-Fluorouracil] + Cc1cc(Nc2cc(N3CCN(C)CC3)nc(Sc3ccc(NC(=O)C4CC4)cc3)n2)n[nH]1 [Tozasertib] (partner 0.1 µM)
Summary of the method: (§1)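 Relative viability was taken as the ratio of nuclei in treated wells to nuclei in vehicle wells. Lung cancer cell lines in 1536-well plates received compounds by pin tool one day after seeding, either one drug alone or a fixed anchor-drug dose plus five library-drug doses (not always all listed) in √10 steps. Nuclei were counted on 4× images after 5 days of treatment, and values are medians of duplicate plates.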

Sulindac + Linsitinib = compound: CC1=C(CC(=O)O)c2cc(F)ccc2/C1=C\c1ccc([S+](C)[O-])cc1 [Sulindac] + C[C@]1(O)C[C@@H](c2nc(-c3ccc4ccc(-c5ccccc5)nc4c3)c3c(N)nccn32)C1 [Linsitinib] (partner 1 µM)
Summary of the method: as §1

[2] = compound: O=c1[nH]cc(F)c(=O)[nH]1 [5-Fluorouracil] + C[C@]1(O)C[C@@H](c2nc(-c3ccc4ccc(-c5ccccc5)nc4c3)c3c(N)nccn32)C1 [Linsitinib] (partner 1 µM)
Summary of the method: as §1

Sulindac + Foretinib = compound: CC1=C(CC(=O)O)c2cc(F)ccc2/C1=C\c1ccc([S+](C)[O-])cc1 [Sulindac] + COc1cc2c(Oc3ccc(NC(=O)C4(C(=O)Nc5ccc(F)cc5)CC4)cc3F)ccnc2cc1OCCCN1CCOCC1 [Foretinib] (partner 0.25 µM)
Summary of the method: as §1

Cell Line	relative viability ([1]; first compound 0.02 µM)	relative viability ([1]; first compound 0.2 µM)	relative viability ([1]; first compound 0.6325 µM)	relative viability ([1]; first compound 2 µM)	relative viability (Sulindac + Linsitinib; first compound 0.08 µM)	relative viability (Sulindac + Linsitinib; first compound 0.253 µM)	relative viability (Sulindac + Linsitinib; first compound 0.8 µM)	relative viability (Sulindac + Linsitinib; first compound 2.53 µM)	relative viability (Sulindac + Linsitinib; first compound 8 µM)	relative viability ([2]; first compound 0.02 µM)	relative viability ([2]; first compound 0.2 µM)	relative viability ([2]; first compound 0.6325 µM)	relative viability ([2]; first compound 2 µM)	relative viability (Sulindac + Foretinib; first compound 0.08 µM)	relative viability (Sulindac + Foretinib; first compound 0.253 µM)	relative viability (Sulindac + Foretinib; first compound 0.8 µM)	relative viability (Sulindac + Foretinib; first compound 2.53 µM)	relative viability (Sulindac + Foretinib; first compound 8 µM)
NCI-H441	0.701	0.468	0.372	0.343	0.469	0.375	0.48	0.638	0.849	0.51	0.519	0.397	0.301	0.992	1.15	0.86	1	1.24
NCI-H460	0.459	0.13	0.106	0.0388	1.13	0.79		0.988	1.15	0.872		0.163	0.042	1.3	1.12	0.667	1.02	1.08
NCI-H520		0.484	0.438	0.329	1.24	1.1	0.739	0.997	1.33	0.892	1.07	0.751	0.356	0.876	0.822		0.678	1.34
NCI-H596	0.939	0.845	0.479	0.364	0.943	0.985	0.857	1.12	1.27	1.02	0.834	0.689	0.567	0.796	1.05	0.928	0.97	0.892
NCI-H647	0.146	0.415	0.232	0.243	1.14	1.3	1.4	1.25	1.21	1.05	1.32	1.16	0.701	1.25	1.2	1.05	1.25	1.28
NCI-H650	0.765	0.384	0.309	0.257	0.973	0.87	0.62	0.817	1.23	0.866	0.691	0.511	0.394	0.926	1	0.997	0.994	1.19
NCI-H661	0.365	0.355	0.342	0.319	0.585	0.564	0.501	0.637	0.711	0.466	0.731	0.654	0.522	1.12	1.05	0.999	1.1	1.03
NCI-H727	0.659	0.646	0.691	0.571	0.29	0.224	0.27	0.243	0.34	0.272	0.443	0.31	0.332	0.789	0.93		0.898	0.826
NCI-H838	0.267	0.251	0.243	0.183	1.19	1.06	0.848	1.01	1.2	1.01	1.06	0.578	0.312	1.05	1.19	1.03	1.06	1.22
